The results in this text go back to US10385103B2, “Cell-permeable (ICP)-SOCS3 recombinant protein and uses thereof” (CELLIVERY THERAPEUTICS, INC., priority 2014, dated 2019).

In the test the test system is RAW 264.7 cells. Description: Quantitative cell-permeability of FITC-labeled aMTD- or rPeptide-fused CRA recombinant proteins (flow cytometry). The class given is cell-based. In short, it runs like this: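 Uptake of fluorescently labeled, peptide-fused cargo proteins was quantified by flow cytometry (Guava, Millipore) and analyzed in FlowJo software. RAW 264.7 cells received 10 μM FITC-labeled protein for 1 hour at 37° C., were rinsed three times with cold PBS, and were trypsinized with 0.25% tripsin/EDTA for 20 minutes at 37° C. to remove bound protein before measurement. Permeability was expressed relative to reference proteins.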

Setting [1] is: cell-permeability relative to negative control rP38 (A type), aMTD-fused CRA recombinant protein, 10 μM FITC-labeled, 1 hour, 37° C., RAW 264.7 cells.
The mark [2] stands for this setting: cell-permeability relative to reference CPP MTD85 (C type), aMTD-fused CRA recombinant protein, 10 μM FITC-labeled, 1 hour, 37° C., RAW 264.7 cells.
[3] abbreviates: cell-permeability relative to reference CPP MTM12 (B type), aMTD-fused CRA recombinant protein, 10 μM FITC-labeled, 1 hour, 37° C., RAW 264.7 cells.
[4] abbreviates: cell-permeability of aMTD-fused CRA recombinant protein relative to negative control (A: rP38).
[5] abbreviates: cell-permeability of aMTD-fused CRA recombinant protein relative to reference CPP (B: MTM12).
The mark [6] stands for this setting: cell-permeability of aMTD-fused CRA recombinant protein relative to reference CPP (C: MTD85).

For the substance “764 (AVALAVLPAVVP; Amino acid Sequence of aMTD764) [compound 764]”, the “Relative Ratio (Fold) A” value under setting [1] worked out at 5.0 Fold. For the same substance, the “Relative Ratio (Fold) C” value under setting [2] is recorded as 1.7 Fold. Besides, the “Relative Ratio (Fold) B” value under setting [3] was 3.4 Fold.

With “765 (AVALAVVPAVLP; Amino acid Sequence of aMTD765) [compound 765]”, the “Relative Ratio (Fold) A” value under setting [1] is listed as 3.8 Fold. Under setting [2], the “Relative Ratio (Fold) C” value is reported as 1.3 Fold. In addition, the “Relative Ratio (Fold) B” value under setting [3] is on record as 2.2 Fold.

For the substance “766 (IVVIAVAPAVAP; Amino acid Sequence of aMTD766) [compound 766]”, under setting [4], the “Relative Ratio (Fold) A” value came to 12.9 Fold. In addition, the “Relative Ratio (Fold) B” value under setting [5] was determined as 8.6 Fold. Also, the “Relative Ratio (Fold) C” value under setting [6] is on record as 4.4 Fold.

In the case of “767 (IVVAAVVPALAP; Amino acid Sequence of aMTD767) [compound 767]”, the “Relative Ratio (Fold) A” value under setting [4] was determined as 8.5 Fold. In addition, the “Relative Ratio (Fold) B” value under setting [5] is recorded as 5.0 Fold. The “Relative Ratio (Fold) C” value under setting [6] is on record as 2.9 Fold.

For “783 (IVALVPAVAIAP; Amino acid Sequence of aMTD783) [compound 783]”, the “Relative Ratio (Fold) A” value under setting [1] is recorded as 5.7 Fold. Besides, the “Relative Ratio (Fold) C” value under setting [2] is 1.9 Fold. In addition, the “Relative Ratio (Fold) B” value under setting [3] is reported as 3.8 Fold.

Regarding “784 (VAALPAVALVVP; Amino acid Sequence of aMTD784) [compound 784]”, the “Relative Ratio (Fold) A” value under setting [1] is given as 7.1 Fold. For the same substance, under setting [2], the “Relative Ratio (Fold) C” value was 2.4 Fold. Also, under setting [3], the “Relative Ratio (Fold) B” value turned out to be 4.7 Fold.

For the substance “786 (LVAIAPLAVLAP; Amino acid Sequence of aMTD786) [compound 786]”, the “Relative Ratio (Fold) A” value under setting [4] was 21.2 Fold. For the same substance, the “Relative Ratio (Fold) B” value under setting [5] is 14.2 Fold. The “Relative Ratio (Fold) C” value under setting [6] was 7.2 Fold.

For the substance “788 (AIAVAIAPVALP; Amino acid Sequence of aMTD788) [compound 788]”, under setting [4], the “Relative Ratio (Fold) A” value stood at 9.8 Fold. In addition, under setting [5], the “Relative Ratio (Fold) B” value is 6.6 Fold. The “Relative Ratio (Fold) C” value under setting [6] is reported as 3.3 Fold.

Consider “803 (AIALAVPVLALP; Amino acid Sequence of aMTD803) [compound 803]”, for which, under setting [4], the “Relative Ratio (Fold) A” value amounted to 74.7 Fold. The “Relative Ratio (Fold) B” value under setting [5] turned out to be 50.0 Fold. Under setting [6], the “Relative Ratio (Fold) C” value worked out at 25.3 Fold.

Take “805 (LVLIAAAPIALP; Amino acid Sequence of aMTD805) [compound 805]”: under setting [4], the “Relative Ratio (Fold) A” value is 22.3 Fold. For the same substance, the “Relative Ratio (Fold) B” value under setting [5] came to 14.9 Fold. Besides, the “Relative Ratio (Fold) C” value under setting [6] worked out at 7.6 Fold.

As to “806 (LVALAVPAAVLP; Amino acid Sequence of aMTD806) [compound 806]”, the “Relative Ratio (Fold) A” value under setting [4] is 36.7 Fold. Further, under setting [5], the “Relative Ratio (Fold) B” value is given as 24.6 Fold. The “Relative Ratio (Fold) C” value under setting [6] is given as 12.4 Fold.

Consider “807 (AVALAVPALVLP; Amino acid Sequence of aMTD807) [compound 807]”, for which, under setting [1], the “Relative Ratio (Fold) A” value was determined as 5.0 Fold. Besides, the “Relative Ratio (Fold) C” value under setting [2] was determined as 1.7 Fold. In addition, the “Relative Ratio (Fold) B” value under setting [3] came to 3.3 Fold.

Take “809 (LIVLAAPALAAP; Amino acid Sequence of aMTD809) [compound 809]”: the “Relative Ratio (Fold) A” value under setting [1] worked out at 7.0 Fold. Moreover, the “Relative Ratio (Fold) C” value under setting [2] stood at 2.4 Fold. The “Relative Ratio (Fold) B” value under setting [3] is recorded as 4.7 Fold.

Consider “810 (VIVLAAPALAAP; Amino acid Sequence of aMTD810) [compound 810]”, for which the “Relative Ratio (Fold) A” value under setting [4] amounted to 120.0 Fold. In addition, the “Relative Ratio (Fold) B” value under setting [5] worked out at 80.3 Fold. Also, the “Relative Ratio (Fold) C” value under setting [6] is given as 40.6 Fold.

As to “811 (AVVLAVPALAVP; Amino acid Sequence of aMTD811) [compound 811]”, the “Relative Ratio (Fold) A” value under setting [4] turned out to be 46.5 Fold. The “Relative Ratio (Fold) B” value under setting [5] was 31.1 Fold. In addition, the “Relative Ratio (Fold) C” value under setting [6] stood at 15.7 Fold.

For “824 (LIIVAAAPAVAP; Amino acid Sequence of aMTD824) [compound 824]”, the “Relative Ratio (Fold) A” value under setting [4] was 32.8 Fold. Moreover, under setting [5], the “Relative Ratio (Fold) B” value came out at 21.9 Fold. The “Relative Ratio (Fold) C” value under setting [6] amounted to 11.1 Fold.

In the case of “825 (IVAVIVAPAVAP; Amino acid Sequence of aMTD825) [compound 825]”, the “Relative Ratio (Fold) A” value under setting [4] is reported as 69.7 Fold. Besides, under setting [5], the “Relative Ratio (Fold) B” value is 46.6 Fold. In addition, the “Relative Ratio (Fold) C” value under setting [6] is recorded as 23.5 Fold.

Turning to “826 (LVALAAPIIAVP; Amino acid Sequence of aMTD826) [compound 826]”, under setting [4], the “Relative Ratio (Fold) A” value was determined as 49.2 Fold. In addition, the “Relative Ratio (Fold) B” value under setting [5] is reported as 32.9 Fold. Besides, under setting [6], the “Relative Ratio (Fold) C” value is given as 18.6 Fold.

On to “827 (IAAVLAAPALVP; Amino acid Sequence of aMTD827) [compound 827]”, for which the “Relative Ratio (Fold) A” value under setting [4] is given as 43.0 Fold. For the same substance, the “Relative Ratio (Fold) B” value under setting [5] was determined as 28.8 Fold. The “Relative Ratio (Fold) C” value under setting [6] turned out to be 14.6 Fold.

As for “828 (IALLAAPIIAVP; Amino acid Sequence of aMTD828) [compound 828]”, the “Relative Ratio (Fold) A” value under setting [4] was determined as 36.8 Fold. Besides, the “Relative Ratio (Fold) B” value under setting [5] was found to be 24.6 Fold. Also, the “Relative Ratio (Fold) C” value under setting [6] worked out at 12.4 Fold.

In the case of “829 (AALALVAPVIVP; Amino acid Sequence of aMTD829) [compound 829]”, the “Relative Ratio (Fold) A” value under setting [4] is given as 44.8 Fold. In addition, under setting [5], the “Relative Ratio (Fold) B” value was determined as 30.0 Fold. Under setting [6], the “Relative Ratio (Fold) C” value is listed as 15.2 Fold.

Turning to “830 (IALVAAPVALVP; Amino acid Sequence of aMTD830) [compound 830]”, the “Relative Ratio (Fold) A” value under setting [1] is given as 5.3 Fold. For the same substance, under setting [2], the “Relative Ratio (Fold) C” value was 1.8 Fold. Moreover, under setting [3], the “Relative Ratio (Fold) B” value is reported as 3.5 Fold.

In the case of “831 (IIVAVAPAAIVP; Amino acid Sequence of aMTD831) [compound 831]”, the “Relative Ratio (Fold) A” value under setting [4] was determined as 46.3 Fold. For the same substance, under setting [5], the “Relative Ratio (Fold) B” value amounted to 31.0 Fold. Further, under setting [6], the “Relative Ratio (Fold) C” value is reported as 15.7 Fold.

For the substance “832 (AVAAIVPVIVAP; Amino acid Sequence of aMTD832) [compound 832]”, the “Relative Ratio (Fold) A” value under setting [1] turned out to be 4.1 Fold. Under setting [2], the “Relative Ratio (Fold) C” value was 1.4 Fold. For the same substance, the “Relative Ratio (Fold) B” value under setting [3] is 2.7 Fold.

With “843 (AVLVLVAPAAAP; Amino acid Sequence of aMTD843) [compound 843]”, the “Relative Ratio (Fold) A” value under setting [4] is given as 26.4 Fold. In addition, the “Relative Ratio (Fold) B” value under setting [5] amounted to 17.7 Fold. Under setting [6], the “Relative Ratio (Fold) C” value came to 8.9 Fold.

Regarding “844 (VVALLAPLIAAP; Amino acid Sequence of aMTD844) [compound 844]”, under setting [4], the “Relative Ratio (Fold) A” value was 11.2 Fold. Further, under setting [5], the “Relative Ratio (Fold) B” value is on record as 7.5 Fold. For the same substance, under setting [6], the “Relative Ratio (Fold) C” value is recorded as 3.8 Fold.

For “845 (AAVVIAPLLAVP; Amino acid Sequence of aMTD845) [compound 845]”, the “Relative Ratio (Fold) A” value under setting [4] is reported as 35.8 Fold. Besides, the “Relative Ratio (Fold) B” value under setting [5] was found to be 24.0 Fold. For the same substance, the “Relative Ratio (Fold) C” value under setting [6] stood at 12.1 Fold.

With “846 (IAVAVAAPLLVP; Amino acid Sequence of aMTD846) [compound 846]”, the “Relative Ratio (Fold) A” value under setting [4] amounted to 11.7 Fold. For the same substance, under setting [5], the “Relative Ratio (Fold) B” value was 6.8 Fold. Also, the “Relative Ratio (Fold) C” value under setting [6] was 4.0 Fold.
